# From ChEMBL document CHEMBL4334511, “Trivirensols: Selectively Bacteriostatic Sesquiterpene Trimers from the Australian Termite Nest-Derived Fungus Trichoderma virens CMB-TN16” (J Nat Prod, 2019)
# Activity calls are given as the source filed them. No cut-off for these calls is given here.
# Columns and labels:
# Acinetobacter baumannii = experiment: Antibacterial activity against OXA-23-producing Acinetobacter baumannii SA-Rd-KAMC-083 assessed as reduction in […] growth at 0.01 to 30 uM incubated for 24 hrs by spectrophotometry based broth microdilution assay; format: functional, organism-based
# SW-620 = experiment: Cytotoxicity against human SW620 cells assessed as reduction in cell viability upto 30 uM incubated for 48 hrs by MTT assay; format: cell-based; settings: sw-620, 48 h
# Klebsiella pneumoniae [1] = experiment: Antibacterial activity against NDM-producing Klebsiella pneumoniae SA-Rd-KAMC-037 assessed as reduction in […] growth at 0.01 to 30 uM incubated for 24 hrs by spectrophotometry based broth microdilution assay; format: functional, organism-based
# Staphylococcus aureus [2] = experiment: Antibacterial activity against Staphylococcus aureus ATCC 9144 assessed as reduction in […] growth at 0.01 to 30 uM incubated for 24 hrs by spectrophotometry based broth microdilution assay; format: functional, organism-based
# Streptococcus pyogenes = experiment: Antibacterial activity against Streptococcus pyogenes ATCC 12344 assessed as reduction in […] growth at 0.01 to 30 uM incubated for 24 hrs by spectrophotometry based broth microdilution assay; format: functional, organism-based
# Pseudomonas aeruginosa [3] = experiment: Antibacterial activity against IMP producing Pseudomonas aeruginosa UAE-DBI-ZMH-91 assessed as reduction in […] growth at 0.01 to 30 uM incubated for 24 hrs by spectrophotometry based broth microdilution assay; format: functional, organism-based
# Candida albicans = experiment: Antifungal activity against Candida albicans ATCC 90028 assessed as reduction in fungal growth at 0.01 to 30 uM incubated for 24 hrs by spectrophotometry based broth microdilution assay; format: functional, organism-based
# Enterococcus faecalis [4] = experiment: Antibacterial activity against vancomycin-resistant Enterococcus faecalis AUS-RBWH-VRE-01 assessed as reduction in […] growth incubated for 24 hrs by spectrophotometry based broth microdilution assay; format: functional, organism-based
# Pseudomonas aeruginosa [5] = experiment: Antibacterial activity against VIM producing Pseudomonas aeruginosa SA-EP-KFUH-40 assessed as reduction in […] growth at 0.01 to 30 uM incubated for 24 hrs by spectrophotometry based broth microdilution assay; format: functional, organism-based
# Escherichia coli [6] = experiment: Antibacterial activity against Escherichia coli KUW-kw-AmH-11 assessed as reduction in […] growth at 0.01 to 30 uM incubated for 24 hrs by spectrophotometry based broth microdilution assay; format: functional, organism-based
# Escherichia coli [7] = experiment: Antibacterial activity against Escherichia coli ATCC 11775 assessed as reduction in […] growth at 0.01 to 30 uM incubated for 24 hrs by spectrophotometry based broth microdilution assay; format: functional, organism-based
# NCI-H460 = experiment: Cytotoxicity against human NCI-H460 cells assessed as reduction in cell viability upto 30 uM incubated for 48 hrs by MTT assay; format: cell-based; settings: nci-h460, 48 h
# Staphylococcus aureus [8] = experiment: Antibacterial activity against methicillin-resistant Staphylococcus aureus AUS-RBWH-MRSA-02 assessed as reduction in […] growth at 0.01 to 30 uM incubated for 24 hrs by spectrophotometry based broth microdilution assay; format: functional, organism-based
# Bacillus subtilis = experiment: Antibacterial activity against Bacillus subtilis ATCC 6633 assessed as reduction in […] growth at 0.01 to 30 uM incubated for 24 hrs by spectrophotometry based broth microdilution assay; format: functional, organism-based
# Klebsiella pneumoniae [9] = experiment: Antibacterial activity against OXA-48-producing Klebsiella pneumoniae SA-Rd-KAMC-014 assessed as reduction in […] growth at 0.01 to 30 uM incubated for 24 hrs by spectrophotometry based broth microdilution assay; format: functional, organism-based
# Enterococcus faecalis [10] = experiment: Antibacterial activity against vancomycin-resistant Enterococcus faecalis AUS-RBWH-VRE-01 assessed as fold reduction in growth by measuring colony formation unit at 30 uM incubated for 24 hrs by time kill assay; format: functional
# [11] = Enterococcus faecalis, AUS-RBWH-VRE-01, 24 h, read-out: IC50
SMILES,Activity (Acinetobacter baumannii),Activity (SW-620),Activity (Klebsiella pneumoniae [1]),Activity (Staphylococcus aureus [2]),Activity (Streptococcus pyogenes),Activity (Pseudomonas aeruginosa [3]),Activity (Candida albicans),IC50 (Enterococcus faecalis [4]),Activity (Pseudomonas aeruginosa [5]),Activity (Escherichia coli [6]),Activity (Escherichia coli [7]),Activity (NCI-H460),Activity (Staphylococcus aureus [8]),Activity (Bacillus subtilis),Activity (Klebsiella pneumoniae [9]),Activity (Enterococcus faecalis [10]),fold change (FC) (Enterococcus faecalis [10]),IC50 (Enterococcus faecalis [4]; [11])
CC(C)[C@H]1CC[C@@](O)(COC(=O)/C(=C/[C@@H]2[C@@H](C(C)C)CC[C@@]3(OC(=O)/C(=C/[C@H]4C=C(CO)CC[C@@H]4C(C)C)CO)COC(=O)[C@@H]23)CO)[C@H]2C(=O)OCC(C(=O)O)=C[C@H]12,inactive,Non-Toxic,inactive,inactive,inactive,inactive,inactive,Not Active,inactive,inactive,inactive,Non-Toxic,inactive,inactive,inactive,–,–,–
CC(C)[C@H]1CC[C@@](O)(COC(=O)C2=C[C@H]3[C@@H](OC2)[C@H](CO)CC[C@@H]3C(C)C)[C@H]2C(=O)OCC(C(=O)O)=C[C@H]12,inactive,Non-Toxic,inactive,inactive,inactive,inactive,inactive,–,inactive,inactive,inactive,Non-Toxic,inactive,inactive,inactive,–,–,–
CC(C)[C@H]1CC[C@@](O)(COC(=O)/C(=C/[C@H]2C3=C(CC[C@@H]2C(C)C)COC3=O)CO)[C@H]2C(=O)OCC(C(=O)O)=C[C@H]12,inactive,Non-Toxic,inactive,inactive,inactive,inactive,inactive,–,inactive,inactive,inactive,Non-Toxic,inactive,inactive,inactive,Active,–,–
CC(C)[C@H]1CC[C@@]2(OC(=O)/C(=C/[C@H]3C4=C(CC[C@@H]3C(C)C)COC4=O)CO)COC(=O)[C@H]2[C@@H]1/C=C(\CO)C(=O)O,inactive,Non-Toxic,inactive,inactive,inactive,inactive,inactive,–,inactive,inactive,inactive,Non-Toxic,inactive,inactive,inactive,–,–,–
CC(C)[C@H]1CC[C@@](O)(COC(=O)C2=C[C@@H]3[C@@H](C(C)C)CC[C@@](O)(COC(=O)/C(=C/[C@H]4C=C(CO)CC[C@@H]4C(C)C)CO)[C@H]3C(=O)OC2)[C@H]2C(=O)OCC(C(=O)O)=C[C@H]12,inactive,Non-Toxic,inactive,inactive,inactive,inactive,inactive,Not Active,inactive,inactive,inactive,Non-Toxic,inactive,inactive,inactive,–,–,–
CC(C)[C@H]1CC[C@@](O)(COC(=O)/C(=C/[C@H]2C3=C(CC[C@@H]2C(C)C)COC3=O)CO)[C@@H](C(=O)O)[C@@H]1/C=C(\CO)C(=O)O,inactive,Non-Toxic,inactive,inactive,inactive,inactive,inactive,–,inactive,inactive,inactive,Non-Toxic,inactive,inactive,inactive,Active,–,–
CN[C@H](CC(C)C)C(=O)N[C@H]1C(=O)N[C@@H](CC(N)=O)C(=O)N[C@H]2C(=O)N[C@H]3C(=O)N[C@H](C(=O)N[C@H](C(=O)O)c4cc(O)cc(O)c4-c4cc3ccc4O)[C@H](O)c3ccc(c(Cl)c3)Oc3cc2cc(c3O[C@@H]2O[C@H](CO)[C@@H](O)[C@H](O)[C@H]2O[C@H]2C[C@](C)(N)[C@H](O)[C@H](C)O2)Oc2ccc(cc2Cl)[C@H]1O [VANCOMYCIN],–,–,–,–,–,–,–,–,–,–,–,–,–,–,–,–,100,–
CC(C)[C@H]1CC[C@@]2(OC(=O)/C(=C/[C@H]3C=C(CO)CC[C@@H]3C(C)C)CO)COC(=O)[C@H]2[C@@H]1/C=C(\CO)C(=O)O,inactive,Non-Toxic,inactive,inactive,inactive,inactive,inactive,–,inactive,inactive,inactive,Non-Toxic,inactive,inactive,inactive,–,–,–
CC(C)[C@H]1CC[C@@](O)(COC(=O)C2=C[C@@H]3[C@@H](C(C)C)CC[C@@](O)(COC(=O)/C(=C/[C@H]4C5=C(CC[C@@H]4C(C)C)COC5=O)CO)[C@H]3C(=O)OC2)[C@H]2C(=O)OCC(C(=O)O)=C[C@H]12,inactive,Non-Toxic,inactive,inactive,inactive,inactive,inactive,–,inactive,inactive,inactive,Non-Toxic,inactive,inactive,inactive,–,10000,1600 nM
CC(C)[C@H]1CC[C@@](O)(COC(=O)/C(=C/[C@H]2C=C(CO)CC[C@@H]2C(C)C)CO)[C@H]2C(=O)OCC(C(=O)O[C@@]34CC[C@H](C(C)C)[C@@H](/C=C(\CO)C(=O)O)[C@@H]3C(=O)OC4)=C[C@H]12,inactive,Non-Toxic,inactive,inactive,inactive,inactive,inactive,Not Active,inactive,inactive,inactive,Non-Toxic,inactive,inactive,inactive,–,–,–
CC(C)[C@H]1CC[C@@](O)(COC(=O)/C(=C/[C@@H]2[C@@H](C(C)C)CC[C@@](O)(COC(=O)/C(=C/[C@H]3C4=C(CC[C@@H]3C(C)C)COC4=O)CO)[C@H]2C(=O)O)CO)[C@H]2C(=O)OCC(C(=O)O)=C[C@H]12,inactive,Non-Toxic,inactive,inactive,inactive,inactive,inactive,–,inactive,inactive,inactive,Non-Toxic,inactive,inactive,inactive,–,10000,1000 nM
CC(C)[C@H]1CC[C@@](O)(COC(=O)/C(=C/[C@H]2C=C(CO)CC[C@@H]2C(C)C)CO)[C@H]2C(=O)OCC(C(=O)O)=C[C@H]12,inactive,Non-Toxic,inactive,inactive,inactive,inactive,inactive,–,inactive,inactive,inactive,Non-Toxic,inactive,inactive,inactive,–,–,–
